Test results: patent publication US10344039B2, “Macrocyclic spirocarbamate derivatives as factor XIa inhibitors, pharmaceutically acceptable compositions and their use” (MERCK SHARP & DOHME CORP., priority 2015, dated 2019)

Key:
[1] = biological target: T1, purified human Factor XIa (Homo sapiens, UniProt P03951); test: Factor XIa Assay; assay type: biochemical; conditions: purified human Factor XIa 40 pM; substrate Z-Gly-Pro-Arg-AFC 100 μM; 50 mM HEPES pH 7.4; read-out: Hu FXIa Ki
T1 construct: purified human Factor XIa; purchased Sekisui Diagnostics
Summary of the method: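 Purified human FXIa at 40 pM, in 50 mM HEPES pH 7.4 with 150 mM NaCl, 5 mM CaCl2 and 0.1% PEG 8000, was preequilibrated with inhibitor. Initial hydrolysis rates of Z-Gly-Pro-Arg-AFC were then measured at room temperature or 37 °C. Ki was derived from Vo/Vi = 1 + [I]/Ki, assuming competitive inhibition.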

[2] = biological target: T2, purified Human plasma kallikrein (Homo sapiens, UniProt P03952); test: Kallikrein Assay; assay type: biochemical; conditions: purified Human plasma kallikrein 0.5 nM; substrate Acetyl-K-P-R-AFC; 50 mM HEPES pH 7.4; Ki from IC50 by Cheng Prusoff equation; read-out: Hu P. Kallikrein
T2 construct: yields a heavy chain (371 amino acids) and a light chain (248 amino acids); purchased Enzyme Research Laboratories
Method: The effectiveness of a compound of the present invention as an inhibitor of Kallikrein can be determined using a relevant purified serine protease, and an appropriate synthetic substrate. The rate of hydrolysis of the chromogenic or fluorogenic substrate by the relevant serine protease was measured both in the absence and presence of compounds of the present invention. Assays were conducted at room temperature or at 37° C. […] A decrease in the rate of fluorescence change in the presence of inhibitor is indicative of enzyme inhibition. Such methods are known to one skilled in the art. The results of this assay are expressed as the inhibitory constant, Ki. Kallikrein determinations were made in 50 mM HEPES buffer at pH 7.4 containing 150 mM NaCl, 5 mM CaCl2, and 0.1% PEG 8000 (polyethylene glycol; Fisher Scientific). Determinations were made using purified Human plasma kallikrein at a final concentration of 0.5 nM (Enzyme Research Laboratories) and the synthetic substrate, Acetyl-K—P-R-AFC (Sigma # C6608) at a concentration of […]. Activity assays were performed by diluting a stock solution of substrate at least tenfold to a final concentration ≤0.2 Km into a solution containing enzyme or enzyme equilibrated with inhibitor. Times required to achieve equilibration between enzyme and inhibitor were determined in control experiments. The reactions were performed under linear progress curve conditions and fluorescence increase measured at 405 Ex/510 Em nm. Values were converted to percent inhibition of the control reaction (after subtracting 100% Inhibition value). IC50 was determined by inflection point from a four parameter logistic curve fit. Ki was calculated using the Cheng Prusoff equation, Ki=IC50/(1+([S]/Km)). The activities shown by this assay indicate that the compounds of the invention may be therapeutically useful for treating or preventing various cardiovascular and/or cerebrovascular thromboembolic conditions in patients suffering from unstable angina, acute coronary syndrome, refractory angina, myocardial infarction, transient ischemic attacks, atrial fibrillation, stroke such as thrombotic stroke or embolic stroke, venous thrombosis, coronary and cerebral arterial thrombosis, cerebral and pulmonary embolism, atherosclerosis, deep vein thrombosis, disseminated intravascular coagulation, and reocclusion or restenosis of recanalized vessels.

T1 sequence (P03951 388-625 limits assumed): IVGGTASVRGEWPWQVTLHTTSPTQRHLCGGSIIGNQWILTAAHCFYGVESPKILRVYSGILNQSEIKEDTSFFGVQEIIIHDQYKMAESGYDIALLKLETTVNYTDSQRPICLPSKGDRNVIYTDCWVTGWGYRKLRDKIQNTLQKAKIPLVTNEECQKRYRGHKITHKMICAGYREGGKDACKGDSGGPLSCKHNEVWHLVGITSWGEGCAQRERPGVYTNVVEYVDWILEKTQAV
T1 sequence (P03951 19-387 partner limits assumed): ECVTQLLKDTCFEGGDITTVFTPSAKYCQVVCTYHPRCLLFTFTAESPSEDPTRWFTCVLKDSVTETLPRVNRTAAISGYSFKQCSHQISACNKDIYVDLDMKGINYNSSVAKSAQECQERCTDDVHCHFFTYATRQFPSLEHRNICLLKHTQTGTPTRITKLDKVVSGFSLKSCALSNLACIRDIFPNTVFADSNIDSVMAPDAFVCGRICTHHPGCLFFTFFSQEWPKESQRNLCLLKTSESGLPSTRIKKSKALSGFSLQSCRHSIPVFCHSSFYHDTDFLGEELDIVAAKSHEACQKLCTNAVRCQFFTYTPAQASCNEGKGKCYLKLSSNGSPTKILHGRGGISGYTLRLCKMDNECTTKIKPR
T2 sequence (P03952 391-638 limits assumed): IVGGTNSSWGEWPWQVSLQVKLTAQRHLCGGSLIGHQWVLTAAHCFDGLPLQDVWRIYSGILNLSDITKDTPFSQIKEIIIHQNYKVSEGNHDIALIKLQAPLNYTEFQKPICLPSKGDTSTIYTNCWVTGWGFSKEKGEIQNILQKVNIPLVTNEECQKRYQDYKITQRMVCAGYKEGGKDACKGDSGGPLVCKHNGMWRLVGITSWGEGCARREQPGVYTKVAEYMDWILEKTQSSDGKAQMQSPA
T2 sequence (P03952 20-390 partner limits assumed): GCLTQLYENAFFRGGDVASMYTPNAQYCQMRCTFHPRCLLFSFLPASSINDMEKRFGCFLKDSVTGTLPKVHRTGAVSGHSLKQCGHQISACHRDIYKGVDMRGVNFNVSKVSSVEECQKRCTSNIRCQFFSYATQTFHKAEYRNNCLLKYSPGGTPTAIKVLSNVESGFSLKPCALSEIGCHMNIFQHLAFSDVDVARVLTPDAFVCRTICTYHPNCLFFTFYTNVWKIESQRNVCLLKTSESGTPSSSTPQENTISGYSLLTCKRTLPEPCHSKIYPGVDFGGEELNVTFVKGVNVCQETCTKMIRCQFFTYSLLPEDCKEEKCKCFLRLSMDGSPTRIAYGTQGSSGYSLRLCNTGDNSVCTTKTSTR

| Ki [1] [nM] | Ki [2] [nM] | Structure (SMILES) |
| --- | --- | --- |
| 0.67 | 0.96 | COC(=O)Nc1ccc2c(c1)NC(=O)[C@H](C)CCCC(C(=O)N1CCC[C@@]3(C1)OC(=O)Nc1ccc(Cl)c(F)c13)c1nc-2c(Cl)[nH]1 (stereo partly drawn) [Example 10, methyl ((5R,Z)-1^5-chloro-9-((R)-6-chloro-5-fluoro-2-oxo-1,2-dihydrospiro[benzo[d][1,3]oxazine-4,3′-piperidine]-1′-carbonyl)-5-methyl-4-oxo-1^1H-3-aza-1(4,2)-imidazola-2(1,2)-benzenacyclononaphane-2^4-yl)carbamate] |
| 0.6 | 1.11 | COC(=O)Nc1ccc2c(c1)NC(=O)CCCC[C@@H](C(=O)N1CC[C@@]3(C1)OC(=O)Nc1ccc(Cl)c(F)c13)c1nc-2c(C)[nH]1 [Example 13b, methyl ((R,Z)-9-((R)-6-chloro-5-fluoro-2-oxo-1,2-dihydrospiro[benzo[d][1,3]oxazine-4,3′-pyrrolidine]-1′-carbonyl)-1^5-methyl-4-oxo-1^1H-3-aza-1(4,2)-imidazola-2(1,2)-benzenacyclononaphane-2^4-yl)carbamate] |
| 13.4 | 5.5 | COC(=O)Nc1ccc2c(c1)NC(=O)[C@H](C)CCC[C@@H](C(=O)N1CCC[C@@]3(C1)OC(=O)Nc1ccc(Cl)c(F)c13)C1=NC=C2O1 [Example 14a, methyl ((5R,9R)-9-((R)-6-chloro-5-fluoro-2-oxo-1,2-dihydrospiro[benzo[d][1,3]oxazine-4,3′-piperidine]-1′-carbonyl)-5-methyl-4-oxo-3-aza-1(5,2)-oxazola-2(1,2)-benzenacyclononaphane-2^4-yl)carbamate] |
| 9.2 | 3.8 | COC(=O)Nc1ccc2c(c1)NC(=O)CCCC[C@@H](C(=O)N1CC[C@@]3(C1)OC(=O)Nc1ccc(Cl)cc13)c1cc-2ccn1 [Example 17a, methyl ((R)-9-((R)-6-chloro-2-oxo-1,2-dihydrospiro[benzo[d][1,3]oxazine-4,3′-pyrrolidine]-1′-carbonyl)-4-oxo-3-aza-1(4,2)-pyridina-2(1,2)-benzenacyclononaphane-2^4-yl)carbamate] |
| 8.6 | 3.65 | COC(=O)Nc1ccc2c(c1)NC(=O)CCCCC[C@@H](C(=O)N1CC[C@@]3(C1)OC(=O)Nc1ccc(Cl)c(F)c13)c1cc-2ccn1 [Example 18a, methyl ((R)-10-((R)-6-chloro-5-fluoro-2-oxo-1,2-dihydrospiro[benzo[d][1,3]oxazine-4,3′-pyrrolidine]-1′-carbonyl)-4-oxo-3-aza-1(4,2)-pyridina-2(1,2)-benzenacyclodecaphane-2^4-yl)carbamate] |
| 59.4 | 17 | COC(=O)Nc1ccc2c(c1)NC(=O)CC/C=C/C[C@@H](C(=O)N1CCC[C@@]3(C1)OC(=O)Nc1ccc(Cl)c(F)c13)c1cc-2ccn1 [Example 21a, methyl ((R,E)-10-((R)-6-chloro-5-fluoro-2-oxo-1,2-dihydrospiro[benzo[d][1,3]oxazine-4,3′-piperidine]-1′-carbonyl)-4-oxo-3-aza-1(4,2)-pyridina-2(1,2)-benzenacyclodecaphanen-2^4-yl)carbamate] |
| 2.88 | 0.77 | COC(=O)Nc1ccc2c(c1)NC(=O)CC/C=C\C[C@@H](C(=O)N1CCC[C@@]3(C1)OC(=O)Nc1ccc(Cl)c(F)c13)c1cc-2ccn1 [Example 22a, methyl ((R,Z)-10-((R)-6-chloro-5-fluoro-2-oxo-1,2-dihydrospiro[benzo[d][1,3]oxazine-4,3′-piperidine]-1′-carbonyl)-4-oxo-3-aza-1(4,2)-pyridina-2(1,2)-benzenacyclodecaphanen-2^4-yl)carbamate] |
| 1.3 | 0.75 | COC(=O)Nc1ccc2c(c1)NC(=O)CCCC[C@@H](C(=O)N1CC[C@@]3(C1)OC(=O)Nc1ccc(Cl)c(F)c13)c1ccnc-2c1 [Example 25a, methyl ((R)-9-((R)-6-chloro-5-fluoro-2-oxo-1,2-dihydrospiro[benzo[d][1,3]oxazine-4,3′-pyrrolidine]-1′-carbonyl)-4-oxo-3-aza-1(2,4)-pyridina-2(1,2)-benzenacyclononaphane-2^4-yl)carbamate] |
| 45.2 | 12.7 | COC(=O)Nc1ccc2c(c1)NC(=O)CCCCC(C(=O)N1CC[C@@]3(C1)OC(=O)Nc1ccc(Cl)cc13)c1cc(F)cc-2c1 (stereo partly drawn) [Example 28, methyl (9-((R)-6-chloro-2-oxo-1,2-dihydrospiro[benzo[d][1,3]oxazine-4,3′-pyrrolidine]-1′-carbonyl)-1^5-fluoro-4-oxo-3-aza-1(1,3),2(1,2)-dibenzenacyclononaphane-2^4-yl)carbamate] |
| 68.8 | 1.52 | COC(=O)Nc1ccc2c(c1)NC(=O)CCCC[C@@H](C(=O)N1CCC[C@@]3(C1)OC(=O)Nc1ccc(Cl)c(F)c13)c1cc(F)cc-2c1 [Example 30b, methyl ((R)-9-((R)-6-chloro-5-fluoro-2-oxo-1,2-dihydrospiro[benzo[d][1,3]oxazine-4,3′-piperidine]-1′-carbonyl)-1^5-fluoro-4-oxo-3-aza-1(1,3),2(1,2)-dibenzenacyclononaphane-2^4-yl)carbamate] |
| 41.1 | 63.7 | CCOC(=O)C1C/C=C/CC(C(=O)N2CCC[C@@]3(C2)OC(=O)Nc2ccc(Cl)c(F)c23)c2nc(c[nH]2)-c2ccc(NC(=O)OC)cc2N1 (stereo partly drawn) [Example 31, ethyl (1^2Z,6E)-9-((R)-6-chloro-5-fluoro-2-oxo-1,2-dihydrospiro[benzo[d][1,3]oxazine-4,3′-piperidine]-1′-carbonyl)-2^4-((methoxycarbonyl)amino)-1^1H-3-aza-1(4,2)-imidazola-2(1,2)-benzenacyclononaphan-6-ene-4-carboxylate] |
| 16.1 | 4.5 | COC(=O)Nc1ccc2c(c1)NC(=O)CCCC[C@H](NC(=O)N1CC[C@@]3(C1)OC(=O)Nc1ccc(Cl)cc13)c1nc-2c[nH]1 [Example 38, methyl ((S,Z)-9-((R)-6-chloro-2-oxo-1,2-dihydrospiro[benzo[d][1,3]oxazine-4,3′-pyrrolidine]-1′-carboxamido)-4-oxo-11H-3-aza-1(4,2)-imidazola-2(1,2)-benzenacyclononaphane-2^4-yl)carbamate] |
